Source: patent publication US20040049799A1, “Method for screening agents capable of treating obesity” (priority 2000, published 2004)

Tested on: messenger for the SPARC protein in the adipose tissue
Test: expression of the messenger for the SPARC protein in adipose tissue after insulin injection
Assay type: in vivo
Settings: injected into mice

In the case of insulin, the “expression of the messenger for the SPARC protein in the adipose tissue” value was “increases the expression of the messenger for the SPARC protein”.
